Data set [1] deals with RAW264.7. The experiment in a line: Antiinflammatory activity against LPS-stimulated mouse RAW264.7 cells assessed as inhibition of LPS-induced IL-6 production by measuring IL-6 level at 50 uM preincubated for 2 hrs followed by LPS treatment and measured after 16 hrs by ELISA (reference value: 100 +/- 1.33%). The format is functional. Set-up: scale not given: the % may be the effect or the level left. A general note: An ELISA detects its analyte on a solid surface through an enzyme-linked reagent.

The subject of data set [2] is RAW264.7. The data set can be described thus: Cytotoxicity against mouse RAW264.7 cells at 50 uM after 24 hrs by MTT assay. The format is cell-based. To be noted: raw264.7, 24 h. A general note: Tetrazolium assays rely on reduction of a dye to a coloured formazan, in cell work by metabolically active cells.
The test system of data set [3] is RAW264.7. The experiment in a line: Antiinflammatory activity against LPS-stimulated mouse RAW264.7 cells assessed as inhibition of LPS-induced TNFalpha production by measuring TNFalpha level at 50 uM preincubated for 2 hrs followed by LPS treatment and measured after 16 hrs by ELISA (reference value: 100 +/- 0.45%). It counts as functional.
Data set [4] relates to RAW264.7. The data set can be described thus: Cytotoxicity against mouse RAW264.7 cells at 50 uM after 24 hrs in presence of 1 ug/ml LPS by MTT assay. To be noted: raw264.7, 24 h. The format is cell-based.

Molecules are shown by their SMILES. Activity calls are given as the source filed them. The rule behind the calls is not given here.

In the case of `O=C1CCC[C@@H]2[C@H]3CC([C@H]4CC[C@H]5CN6C(=O)CCC[C@@H]6[C@H]6CCCN4[C@@H]56)=CN4CCC[C@@H](CN12)[C@@H]34`, the Activity in the data set on RAW264.7 [1] is given as 73.9%; with RAW264.7 [2], “Non-Toxic”; in the data set with RAW264.7 [4], “Non-Toxic”. Further, in the data set with RAW264.7 [3], the “TNFalpha level (% of LPS control)” value is recorded as 49.59%.
Take `O=C1CCC[C@@H]2[C@H]3CCCN[C@H]3[C@H](CCC[C@H]3C[C@H]4CN5C(=O)CCC[C@@H]5[C@H]5CCCN(C3)[C@@H]45)CN12`: the result in the data set with RAW264.7 [1] was inactive. The Activity result in the data set on RAW264.7 [2] and with RAW264.7 [4] was “Non-Toxic” in each case. Also, the “TNFalpha level (% of LPS control)” value in the data set with RAW264.7 [3] came to 69.14%.
In the case of `N#C[C@@H]1N2CCC[C@H]3CN4C(=O)CCC[C@@H]4[C@H]([C@H]32)[C@@H]2O[C@]12[C@H]1CC[C@H]2CN3C(=O)CCC[C@@H]3[C@H]3CCCN1[C@@H]23`, the values for the Activity in the data set on RAW264.7 [1], with RAW264.7 [2] and in the data set on RAW264.7 [4] were 52.87%, “Non-Toxic” and “Non-Toxic”, respectively. In addition, the “TNFalpha level (% of LPS control)” value with RAW264.7 [3] turned out to be 50.05%.
Turning to `N#C[C@H]1N2CCC[C@H]3[C@@H]2[C@H](CN2C(=O)CCC[C@H]32)[C@H]2O[C@]21[C@@H]1CC[C@H]2[C@@H]3[C@@H](CCCN31)CN1C(=O)CCC[C@H]21`, the Activity with RAW264.7 [1] is given as 67.85%; with RAW264.7 [2] it was “Non-Toxic”; in the data set with RAW264.7 [4], “Non-Toxic”. Besides, the “TNFalpha level (% of LPS control)” value with RAW264.7 [3] is 96.64%.
Regarding `O=C1CCC[C@@H]2[C@H]3CCCN4CCC[C@@H](CN12)[C@@H]34` [MATRINE], in the data set on RAW264.7 [1], the Activity was 65.49%. Moreover, the “TNFalpha level (% of LPS control)” value in the data set with RAW264.7 [3] was 72.48%.
Turning to `O=C1CCC[C@@H]2[C@H]3CCCN4CC([C@@H]5CC[C@H]6[C@@H]7[C@@H](CCCN75)CN5C(=O)CCC[C@H]65)=C[C@@H](CN12)[C@@H]34`, the Activity was 60.08% in the data set on RAW264.7 [1], “Non-Toxic” with RAW264.7 [2] and “Non-Toxic” with RAW264.7 [4]. In the data set on RAW264.7 [3], the “TNFalpha level (% of LPS control)” value amounted to 70.86%.

The values are drawn from ChEMBL document CHEMBL4334525, “Alopecuroides A-E, Matrine-Type Alkaloid Dimers from the Aerial Parts of Sophora alopecuroides” (J Nat Prod, 2019).
